Reference: PubChem BioAssay (NCI)
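Cultured in 96-well plates, cells were exposed to test compound for 48 hours across five concentrations. At the GI50, growth is halved. TGI: total growth inhibition.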

Key:
Test in all cases: NCI-60 cell line screen, 48 h
[1] = system: NCI-H23 lung
[2] = system: NCI-H460 lung
[3] = system: NCI-H522 lung
[4] = system: NCI/ADR-RES ovarian
[5] = system: OVCAR-3 ovarian
[6] = system: OVCAR-4 ovarian
[7] = system: OVCAR-5 ovarian
[8] = system: OVCAR-8 ovarian
[9] = system: PC-3 prostate
[10] = system: RPMI-8226 leukemia
[11] = system: RXF 393 renal
[12] = system: SF-268 CNS
[13] = system: SF-295 CNS
[14] = system: SF-539 CNS
[15] = system: SK-MEL-2 melanoma
[16] = system: SK-MEL-28 melanoma
[17] = system: SK-MEL-5 melanoma
[18] = system: SK-OV-3 ovarian
[19] = system: SN12C renal
[20] = system: SNB-19 CNS
[21] = system: SNB-75 CNS
[22] = system: SR leukemia
[23] = system: SW-620 colon
[24] = system: T-47D breast
[25] = system: TK-10 renal
[26] = system: U251 CNS
[27] = system: UACC-257 melanoma
[28] = system: UO-31 renal

SMILES: Cc1cc(C)c2c(N)c3cccc(C)c3nc2n1
- GI50 [1]: 1.59 µM
- TGI [1]: 3.96 µM
- GI50 [2]: 1.4 µM
- TGI [2]: 4.22 µM
- GI50 [3]: 2.61 µM
- TGI [3]: 9.7 µM
- GI50 [4]: 1.54 µM
- TGI [4]: 3.99 µM
- GI50 [5]: 2.57 µM
- TGI [5]: 5.46 µM
- GI50 [6]: 2.29 µM
- TGI [6]: 8.1 µM
- GI50 [7]: 2.1 µM
- TGI [7]: 5.71 µM
- GI50 [8]: 1.55 µM
- TGI [8]: 14.8 µM
- GI50 [9]: 2.44 µM
- TGI [9]: 7.61 µM
- GI50 [10]: 2.14 µM
- TGI [10]: 6.78 µM
- GI50 [11]: 1.64 µM
- TGI [11]: 3.57 µM
- GI50 [12]: 2.15 µM
- TGI [12]: 6.3 µM
- GI50 [13]: 1.44 µM
- TGI [13]: 8.07 µM
- GI50 [14]: 1.61 µM
- TGI [14]: 5.01 µM
- GI50 [15]: 2.03 µM
- TGI [15]: 4.97 µM
- GI50 [16]: 3.86 µM
- TGI [16]: 15.9 µM
- GI50 [17]: 1.44 µM
- TGI [17]: 2.74 µM
- GI50 [18]: 2.11 µM
- TGI [18]: 9.36 µM
- GI50 [19]: 1.61 µM
- TGI [19]: 11.2 µM
- GI50 [20]: 2.21 µM
- TGI [20]: 8.73 µM
- GI50 [21]: 1.83 µM
- TGI [21]: 6.63 µM
- GI50 [22]: 0.703 µM
- TGI [22]: 3.94 µM
- GI50 [23]: 1.94 µM
- TGI [23]: 9.29 µM
- GI50 [24]: 2.03 µM
- TGI [24]: 6.25 µM
- GI50 [25]: 1.83 µM
- TGI [25]: 7.05 µM
- GI50 [26]: 2.47 µM
- TGI [26]: 10.6 µM
- GI50 [27]: 2.15 µM
- TGI [27]: 4.45 µM
- GI50 [28]: 1.9 µM
- TGI [28]: 59.6 µM
